Assay type: physicochemical
Description: The stability of a retinoid is defined in accordance with the present invention by the percentage of the retinoid which remains in its original form after the composition comprising it has been stored for a given period and at a given temperature.
Test of stability of 0.3% all-trans retinol in a water/ethanol mixture stored at 45° C.
The conditions of the study are as follows: test compound at 0.1% (as weight/volume) in water/ethanol (40/60%) all-trans retinol sold by the company Fluka at 0.3% (as weight/volume) in water/ethanol (40/60%) aerobic medium with 55% by volume of air and 45% by volume of ethanol/water storage at 45° C. in amber-coloured bottles.
Degradation of the retinol under these conditions reaches 100% in 7 days of storage at 45° C. The storage conditions to which we subjected the compositions are particularly harsh.
The residual retinol content is monitored by HPLC (on a Spherisorb ODS1 C18 column, by elution with an H2O/CH3CO2H/CH3CO2NH4/acetonitrile mixture: 15/1/0.4/83.6) at 7 days (RT1) and 15 days (RT2) of storage at 45° C. in aerobic medium (55% by volume of air).

Row | stabilization of retinol compared with the histidine derivatives | Degradation of the retinol (7 days, 0.3 % (weight/volume)) [%] | SMILES
1 | stabilizes retinol much less | – | NCCC(=O)N[C@@H](Cc1cnc[nH]1)C(=O)O [carnosine]
2 | – | 100 | CC1=C(/C=C/C(C)=C/C=C/C(C)=C/CO)C(C)(C)CCC1 [retinol, all-trans retinol]

Source: patent US6358514B1, “Combination of a retinoid with a histidine derivative” (L'Oreal, priority 1998, dated 2002)
